Our source for the relative viability values is the supplement of paper PMC10307832.

One test deals with EKVX. Description: relative viability (nuclei count vs DMSO), 5 days (fraction); higher = more cells survive. As to conditions: first compound 0.253 µM. The procedure, abridged:
(§1)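 Each reported value is a median over duplicate plates. It expresses relative viability: treated-well nuclei count divided by vehicle-well nuclei count. Lung cancer cell lines in 1536-well plates were dosed by pin tool a day after seeding, alone with one drug or with a fixed anchor-drug dose plus five library-drug doses (not always all listed) in √10 steps, and nuclei were counted after 5 days.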
Regarding `C=C1C(=O)O[C@@H](CCCCCCCC)[C@@H]1C(=O)O` [C-75] + CC(=O)c1c(C)c2cnc(Nc3ccc(N4CCNCC4)cn3)nc2n(C2CCCC2)c1=O [Palbociclib] (partner 0.5 µM), the relative viability was 0.307.
Same read-out and setting: the result for `C=C1C(=O)O[C@@H](CCCCCCCC)[C@@H]1C(=O)O` [C-75] + Nc1ncn([C@H]2C[C@H](O)[C@@H](CO)O2)c(=O)n1 [Decitabine] (partner 2 µM) reads 0.397.

Still in this test, the particulars now being: first compound 0.8 µM.
As to `Oc1nc(-c2ccc(C(F)(F)F)cc2)nc2c1CSCC2` [XAV939] + O=C(CCCCCCC(=O)Nc1ccccc1)NO [Vorinostat] (partner 1 µM), the relative viability came out at 0.678.
Take `Oc1nc(-c2ccc(C(F)(F)F)cc2)nc2c1CSCC2` [XAV939] + O=C(c1cc(Cc2n[nH]c(=O)c3ccccc23)ccc1F)N1CCN(C(=O)C2CC2)CC1 [Olaparib] (partner 8 µM): the relative viability was found to be 0.65.
The molecule `Oc1nc(-c2ccc(C(F)(F)F)cc2)nc2c1CSCC2` [XAV939] + CC(=O)c1c(C)c2cnc(Nc3ccc(N4CCNCC4)cn3)nc2n(C2CCCC2)c1=O [Palbociclib] (partner 0.5 µM) had a relative viability of 0.34.
With `C=C1C(=O)O[C@@H](CCCCCCCC)[C@@H]1C(=O)O` [C-75] + CC(=O)c1c(C)c2cnc(Nc3ccc(N4CCNCC4)cn3)nc2n(C2CCCC2)c1=O [Palbociclib] (partner 0.5 µM), the relative viability stood at 0.383.
Still for that read-out and setting: the result for `C=C1C(=O)O[C@@H](CCCCCCCC)[C@@H]1C(=O)O` [C-75] + Nc1ncn([C@H]2C[C@H](O)[C@@H](CO)O2)c(=O)n1 [Decitabine] (partner 2 µM) reads 0.336.

The test is the same for the next values; noted with them: first compound 2.53 µM.
On to `Oc1nc(-c2ccc(C(F)(F)F)cc2)nc2c1CSCC2` [XAV939] + O=C(CCCCCCC(=O)Nc1ccccc1)NO [Vorinostat] (partner 1 µM), for which the relative viability is 0.423.
`Oc1nc(-c2ccc(C(F)(F)F)cc2)nc2c1CSCC2` [XAV939] + O=C(c1cc(Cc2n[nH]c(=O)c3ccccc23)ccc1F)N1CCN(C(=O)C2CC2)CC1 [Olaparib] (partner 8 µM) showed a relative viability of 0.378.
Molecule `Oc1nc(-c2ccc(C(F)(F)F)cc2)nc2c1CSCC2` [XAV939] + CC(=O)c1c(C)c2cnc(Nc3ccc(N4CCNCC4)cn3)nc2n(C2CCCC2)c1=O [Palbociclib] (partner 0.5 µM) showed a relative viability of 0.227.

Still in this test, the particulars now being: first compound 8 µM.
Molecule `C=C1C(=O)O[C@@H](CCCCCCCC)[C@@H]1C(=O)O` [C-75] + CC(=O)c1c(C)c2cnc(Nc3ccc(N4CCNCC4)cn3)nc2n(C2CCCC2)c1=O [Palbociclib] (partner 0.5 µM) came in with a relative viability of 0.425.
For the molecule `C=C1C(=O)O[C@@H](CCCCCCCC)[C@@H]1C(=O)O` [C-75] + Nc1ncn([C@H]2C[C@H](O)[C@@H](CO)O2)c(=O)n1 [Decitabine] (partner 2 µM), the relative viability is 0.325.

A further test concerns NCI-H520. The test is described as above. To be noted: first compound 0.08 µM. The method, boiled down:
as §1
Molecule `Oc1nc(-c2ccc(C(F)(F)F)cc2)nc2c1CSCC2` [XAV939] + O=C(CCCCCCC(=O)Nc1ccccc1)NO [Vorinostat] (partner 1 µM) had a relative viability of 0.722.
On the same count and under the same terms, the figure for `Oc1nc(-c2ccc(C(F)(F)F)cc2)nc2c1CSCC2` [XAV939] + O=C(c1cc(Cc2n[nH]c(=O)c3ccccc23)ccc1F)N1CCN(C(=O)C2CC2)CC1 [Olaparib] (partner 8 µM) is 0.375.
On the same count and under the same terms, the result for `Oc1nc(-c2ccc(C(F)(F)F)cc2)nc2c1CSCC2` [XAV939] + CC(=O)c1c(C)c2cnc(Nc3ccc(N4CCNCC4)cn3)nc2n(C2CCCC2)c1=O [Palbociclib] (partner 0.5 µM) reads 0.252.
Molecule `C=C1C(=O)O[C@@H](CCCCCCCC)[C@@H]1C(=O)O` [C-75] + CC(=O)c1c(C)c2cnc(Nc3ccc(N4CCNCC4)cn3)nc2n(C2CCCC2)c1=O [Palbociclib] (partner 0.5 µM) yielded a relative viability of 0.186.
With `C=C1C(=O)O[C@@H](CCCCCCCC)[C@@H]1C(=O)O` [C-75] + Nc1ncn([C@H]2C[C@H](O)[C@@H](CO)O2)c(=O)n1 [Decitabine] (partner 2 µM), the relative viability worked out at 0.488.

The test is the same for the next values; noted with them: first compound 0.253 µM.
`C=C1C(=O)O[C@@H](CCCCCCCC)[C@@H]1C(=O)O` [C-75] + CC(=O)c1c(C)c2cnc(Nc3ccc(N4CCNCC4)cn3)nc2n(C2CCCC2)c1=O [Palbociclib] (partner 0.5 µM) showed a relative viability of 0.238.
The molecule `C=C1C(=O)O[C@@H](CCCCCCCC)[C@@H]1C(=O)O` [C-75] + Nc1ncn([C@H]2C[C@H](O)[C@@H](CO)O2)c(=O)n1 [Decitabine] (partner 2 µM) returned a relative viability of 0.522.

Staying with this test, now noted: first compound 0.8 µM.
`Oc1nc(-c2ccc(C(F)(F)F)cc2)nc2c1CSCC2` [XAV939] + O=C(CCCCCCC(=O)Nc1ccccc1)NO [Vorinostat] (partner 1 µM) had a relative viability of 0.747.
The molecule `Oc1nc(-c2ccc(C(F)(F)F)cc2)nc2c1CSCC2` [XAV939] + O=C(c1cc(Cc2n[nH]c(=O)c3ccccc23)ccc1F)N1CCN(C(=O)C2CC2)CC1 [Olaparib] (partner 8 µM) displayed a relative viability of 0.342.
As for `Oc1nc(-c2ccc(C(F)(F)F)cc2)nc2c1CSCC2` [XAV939] + CC(=O)c1c(C)c2cnc(Nc3ccc(N4CCNCC4)cn3)nc2n(C2CCCC2)c1=O [Palbociclib] (partner 0.5 µM), the relative viability is 0.183.
Regarding `C=C1C(=O)O[C@@H](CCCCCCCC)[C@@H]1C(=O)O` [C-75] + CC(=O)c1c(C)c2cnc(Nc3ccc(N4CCNCC4)cn3)nc2n(C2CCCC2)c1=O [Palbociclib] (partner 0.5 µM), the relative viability came to 0.225.
In the case of `C=C1C(=O)O[C@@H](CCCCCCCC)[C@@H]1C(=O)O` [C-75] + Nc1ncn([C@H]2C[C@H](O)[C@@H](CO)O2)c(=O)n1 [Decitabine] (partner 2 µM), the relative viability was found to be 0.498.

Staying with this test, now noted: first compound 2.53 µM.
`Oc1nc(-c2ccc(C(F)(F)F)cc2)nc2c1CSCC2` [XAV939] + O=C(CCCCCCC(=O)Nc1ccccc1)NO [Vorinostat] (partner 1 µM) gave a relative viability of 0.717.
The molecule `Oc1nc(-c2ccc(C(F)(F)F)cc2)nc2c1CSCC2` [XAV939] + O=C(c1cc(Cc2n[nH]c(=O)c3ccccc23)ccc1F)N1CCN(C(=O)C2CC2)CC1 [Olaparib] (partner 8 µM) returned a relative viability of 0.356.
`Oc1nc(-c2ccc(C(F)(F)F)cc2)nc2c1CSCC2` [XAV939] + CC(=O)c1c(C)c2cnc(Nc3ccc(N4CCNCC4)cn3)nc2n(C2CCCC2)c1=O [Palbociclib] (partner 0.5 µM) displayed a relative viability of 0.211.
As for `C=C1C(=O)O[C@@H](CCCCCCCC)[C@@H]1C(=O)O` [C-75] + CC(=O)c1c(C)c2cnc(Nc3ccc(N4CCNCC4)cn3)nc2n(C2CCCC2)c1=O [Palbociclib] (partner 0.5 µM), the relative viability turned out to be 0.225.
The same measure, in the same setting: the result for `C=C1C(=O)O[C@@H](CCCCCCCC)[C@@H]1C(=O)O` [C-75] + Nc1ncn([C@H]2C[C@H](O)[C@@H](CO)O2)c(=O)n1 [Decitabine] (partner 2 µM) reads 0.456.

The test is the same for the next values; noted with them: first compound 8 µM.
Turning to `C=C1C(=O)O[C@@H](CCCCCCCC)[C@@H]1C(=O)O` [C-75] + CC(=O)c1c(C)c2cnc(Nc3ccc(N4CCNCC4)cn3)nc2n(C2CCCC2)c1=O [Palbociclib] (partner 0.5 µM), the relative viability was 0.211.
